Measured values taken from US20050130197A1, “Homogeneous fluorescence polarization assay for high throughput screening” (priority 2003, published 2005).
Read-outs that look alike come from different tables or passages of the source. Where a SMILES comes first, the peptide text is derived from it. Where no end group is shown, it is not given here. [ ]: non-standard residue; d: D form. NMeF = CN[C@@H](Cc1ccccc1)C(=O)O

Experiments:
[1] = biological target: T1, human NPFF2 receptor membranes (Homo sapiens, UniProt Q9Y5X5); assay: In vitro functional FP assay with GDP and GTPγS (GTP binding assay); type: biochemical; conditions: one agonist fixed at 2-3×IC50, other ligand varied; 3 μM GDP and 5 μM GTPγS
T1 construct: purchased Euroscreen s.a; (Brussels, Belgium)
Protocol: The binding assay was performed in a final volume of 40 μl as follows: 10 μl of different concentrations of displacing ligand, 10 μl of tracer, and 10 μl of diluted receptor membrane preparation (3.6-4.2 ug protein/well), which were added sequentially. After 15 min, 10 μl of the binding buffer with 3-10 μM GDP and 5-50 μM GTPγS was added. The reaction was incubated at room temperature for 15-120 min.
The concentrations of the other agonist increased from 0.0019 nM to 9.0 μM per well.
Next a combination of an agonist with a fixed concentration and an antagonist with varying concentrations was tested under the same conditions.

human NPFF2 receptor [2] = biological target: T2, human NPFF2 receptor (Homo sapiens, UniProt Q9Y5X5); conditions: data from J. Biol. Chem. 275: 39324-39331 (2000); read-out: [125I]Ligand Filtration Human Ki (b); cited from earlier work
T2 construct: purchased Euroscreen s.a; (Brussels, Belgium)

human NPFF2 receptor [3] = biological target: T2, human NPFF2 receptor; conditions: data from Eur. J. Pharmacol. 451: 245-256 (2002); read-out: [125I]Ligand Filtration Human Ki (c); cited from earlier work
human NPFF2 receptor [4] = biological target: T2, human NPFF2 receptor; assay: Fluorescence polarization (FP) competition binding assay, TAMRA-NPFF tracer, 0.1% Pluronic F-127; conditions: for Ki: FP competition binding, TAMRA-NPFF tracer, human NPFF2 receptor membrane preparation, means ± S.E. of three separate experiments; for Ki for inhibiting TAMRA-NPFF binding (in words): FP displacement curves; for affinity to the TAMRA-NPFF binding site / binding to NPFF2 receptor: 10 μM, FP assay
Protocol: Human NPFF2 receptor membrane homogenates were diluted in a binding buffer (50 mM HEPES buffer, pH 7.4 and various concentrations of detergents) to the membrane concentration required. In general, the binding assay was performed in a final volume of 40 μl: 20 μl of displacing ligand, 10 μl of fluorescent tracer, and 10 μl of diluted receptor membrane preparation (3.6-4.2 ug protein/well depending on the assay), which were added sequentially. The reaction was incubated at room temperature for 0.5-24 h before FP was measured depending on each experiment.
FP binding data were analyzed and fitted using GraphPad Prism® software (GraphPad Software, Inc., San Diego, Calif.). Competitive binding data was fit to a one-site competitive binding equation using nonlinear regression curve fitting. IC50 values were determined by nonlinear regression analysis of the inhibition curves. Data points in the displacement curves and in the graphs of DMSO, nonionic detergents, Chicago Sky Blue 6B and tartrazine consist of an average of 4-6 repetitions. All error bars represent ±1 standard deviation unit of the spread of the data except for displacement curves, where the error bars represent ±SEM. mP is defined by the following equation: mP=1000×(I∥−I⊥)/(I∥+I⊥) where mP=milli-polarization, I∥=parallel component of the emitted light, and I⊥=perpendicular component of the emitted light. Assay precision was assessed by calculating the Z′ value: Z′=1−[(3*σbound)+(3*σdisplaced)/|(mPbound−mPdisplaced)|] where σ is the standard deviation in the signal, mP: the subscript “bound” corresponds to the signal obtained in the absence of a displacing substance; and the subscript “displaced” corresponds to the signal of a completely displaced ligand (Zhang, J-H. et al., J. Biomol. Screen., (1999) 4, 67-73; Banks, P. et al., J. Biomol. Screen., (2002) 7, 111-117). The denominator of the equation calculates the specific binding expressed in the absolute value of mP difference, and the numerator calculates the precision in both bound and displaced signals. Background correction was done after each analysis by subtracting blank parallel and perpendicular intensities from the respective intensities. According to Z′ value model, the Z′ values of above 0.5 indicate excellent assays.

T2 sequence (Q9Y5X5 whole entry): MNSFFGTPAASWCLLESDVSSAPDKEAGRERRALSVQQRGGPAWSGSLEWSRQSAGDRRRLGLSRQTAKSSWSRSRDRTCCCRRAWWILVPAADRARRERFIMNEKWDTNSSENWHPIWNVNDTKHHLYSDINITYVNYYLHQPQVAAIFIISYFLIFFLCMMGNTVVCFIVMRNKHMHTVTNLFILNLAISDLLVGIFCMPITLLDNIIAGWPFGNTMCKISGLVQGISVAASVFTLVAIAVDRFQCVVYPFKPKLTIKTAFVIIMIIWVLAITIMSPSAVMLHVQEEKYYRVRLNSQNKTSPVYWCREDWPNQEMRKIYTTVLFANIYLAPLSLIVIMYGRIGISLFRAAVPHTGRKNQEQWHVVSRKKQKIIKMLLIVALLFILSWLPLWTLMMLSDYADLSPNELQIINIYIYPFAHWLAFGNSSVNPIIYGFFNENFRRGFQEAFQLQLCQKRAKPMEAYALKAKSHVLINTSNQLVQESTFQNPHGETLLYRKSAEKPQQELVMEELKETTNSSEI
T1 sequence (Q9Y5X5 whole entry): as above

Ki (human NPFF2 receptor [4]) [nM] | Ki for inhibiting TAMRA-NPFF binding (in words) (human NPFF2 receptor [4]) | Compound | Ki (human NPFF2 receptor [2]) [nM] | Ki (human NPFF2 receptor [3]) [nM] | affinity to the TAMRA-NPFF binding site / binding to NPFF2 receptor (human NPFF2 receptor [4]) | also measured
96 ± 13 |  | NC(N)=NCCC[C@@H](NC(=O)C(c1ccccc1)c1ccccc1)C(=O)NCc1ccc(O)cc1 [BIBP3226] | 1260 ± 111 | 84 ± 12 |  | affinity state in in vitro functional assays [1]: monophasic affinity state
0.46 ± 0.05 |  | CC(C)C[C@H](NC(=O)[C@H](N)Cc1ccc(O)cc1)C(=O)N(C)[C@@H](Cc1ccccc1)C(=O)N[C@@H](CCC(N)=O)C(=O)N1CCC[C@H]1C(=O)N[C@@H](CCC(N)=O)C(=O)N[C@@H](CCCN=C(N)N)C(=O)N[C@@H](Cc1ccccc1)C(N)=O [[D-Tyr^1(NMe)Phe^3]NPFF, [D-Tyr^1, (N-Me)Phe^3]NPFF] (H-[dY]L[NMeF]QPQRF-NH2) |  | 0.18 ± 0.04 |  | 
 | nanomolar range | CC(C)C[C@H](NC(=O)[C@H](N)Cc1ccc(O)cc1)C(=O)N(C)[C@@H](Cc1ccccc1)C(=O)N[C@@H](CCC(N)=O)C(=O)N1CCC[C@H]1C(=O)N[C@@H](CCC(N)=O)C(=O)N[C@@H](CCCNC(=N)N)C(=O)N[C@@H](Cc1ccccc1)C(N)=O [[D-Tyr^1(NMe)Phe^3]NPFF, [D-Tyr^1, (N-Me)Phe^3]NPFF] (H-[dY]L[NMeF]QPQRF-NH2) |  |  |  | 
 |  | COc1cc(CNC(=O)CCCC/C=C/C(C)C)ccc1O [capsaicin] |  |  | little or no affinity | 
 |  | CC(COc1ccccc1)N(CCCl)Cc1ccccc1 (stereo not drawn) [phenoxybenzamine] |  |  | little or no affinity | 
 | nanomolar range | APSEPHHPGDQATQDQLAQYYSDLYQYITFVTRPRF-NH2 [Frog PP] | 40 ± 11 |  |  | assay window (FIG. 8) (human NPFF2 receptor [4]; 0.1% trifluoroacetic acid added to assay buffer): 100 mP
